According to publication PMC9228872, “Repositioning of Quinazolinedione-Based Compounds on Soluble Epoxide Hydrolase (sEH) through 3D Structure-Based Pharmacophore Model-Driven Investigation” (Molecules, 2022):

Columns and labels:
[1] = target: T1, soluble epoxide hydrolase (sEH) (Homo sapiens, UniProt P34913); assay: cell-free fluorescence assay with PHOME substrate, concentration-response; format: biochemical
T1 construct: gene EPHX2; human recombinant sEH; C-terminal hydrolase domain activity measured
T1 sequence (P34913 1-555): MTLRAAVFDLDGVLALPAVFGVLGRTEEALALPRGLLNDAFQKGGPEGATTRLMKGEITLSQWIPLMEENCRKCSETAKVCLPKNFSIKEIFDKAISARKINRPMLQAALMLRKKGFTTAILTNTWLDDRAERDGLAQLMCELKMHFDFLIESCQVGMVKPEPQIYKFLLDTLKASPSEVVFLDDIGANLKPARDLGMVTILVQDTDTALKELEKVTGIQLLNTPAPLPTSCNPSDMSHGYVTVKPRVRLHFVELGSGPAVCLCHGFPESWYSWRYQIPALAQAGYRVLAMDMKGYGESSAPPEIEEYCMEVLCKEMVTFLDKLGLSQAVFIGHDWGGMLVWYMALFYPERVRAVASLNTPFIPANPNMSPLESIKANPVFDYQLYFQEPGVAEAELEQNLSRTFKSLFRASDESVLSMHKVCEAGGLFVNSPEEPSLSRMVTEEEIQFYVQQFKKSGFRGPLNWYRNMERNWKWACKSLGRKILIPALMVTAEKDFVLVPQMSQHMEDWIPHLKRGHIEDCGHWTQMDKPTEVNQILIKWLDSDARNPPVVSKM

[2] = target: T1, soluble epoxide hydrolase (sEH); assay: cell-free fluorescence assay with PHOME substrate, single concentration […]; format: biochemical; settings: read-out: sEH Residual Activity (%)

Compound `O=C(CCCCn1c(=O)[nH]c2ccccc2c1=O)Nc1ccc2c(c1)OCCO2` [compound 3, N-(2,3-dihydrobenzo[b][1,4]dioxin-6-yl)-5-(2,4-dioxo-1,2dihydroquinazolin-3(4H)yl)pentanamide] has an IC50 [1] of 8.8 ± 1.5 µM.

Work on `O=C(CCCCCn1c(=O)[nH]c2ccccc2c1=O)Nc1ccc2c(c1)OCCO2` [compound 4, N-(2,3-dihydrobenzo[b][1,4]dioxin-6-yl)-6-(2,4-dioxo-1,2-dihydroquinazolin-3(4H)-yl)hexanamide] yielded an IC50 [1] of 4.5 ± 1 µM.

`O=C(CCCCCCn1c(=O)[nH]c2ccccc2c1=O)Nc1cncc(Br)c1` [compound 6, N-(5-bromopyridin-3-yl)-7-(2,4-dioxo-1,2-dihydroquinazolin-3(4H)-yl)heptanamide] showed a remaining activity at 10 µM [2] of 48.6 ± 3.8%.

In the case of `O=C(CCCCCn1c(=O)[nH]c2ccccc2c1=O)Nc1ccc(I)nc1` [compound 7, 6-(2,4-dioxo-1,2-dihydroquinazolin-3(4H)-yl)-N-(6-iodopyridin-3-yl)hexanamide], the remaining activity at 10 µM [2] is reported as 67.2 ± 4.4%.

`O=C(CCCCCn1c(=O)[nH]c2ccccc2c1=O)Nc1ccc2ncsc2c1` [compound 8, N-(benzo[d]thiazol-6-yl)-6-(2,4-dioxo-1,2-dihydroquinazolin-3(4H)-yl)hexanamide] showed a remaining activity at 10 µM [2] of 51.7 ± 3.3%.
